Patent US11051538B2, “Plated flavor powders” (FIRMENICH SA, priority 2013, dated 2021)

Assay: Transfer of volatiles via headspace from MCT flavor composition to PG plated onto MCC, cyclohexane extraction, GC/MS
Format: physicochemical
Conditions: for (conc in PG/conc in initial oil)*100: affinity for propylene glycol versus MCT oil or air; for (conc in PG/conc in initial oil)*100 / Avg conc in the PG: 6 days room temperature; for Avg conc in the PG / Avg conc in powder: powder 20% PG on 80% MCC; for Avg conc in powder: 6 days room temperature in closed container with MCT flavor composition, average of 2 extractions
Protocol: A flavor composition formulated based on a medium chain triglyceride oil (MCT, solvent A) was filled into a open beaker, and was then placed inside a closed glass container containing a powder consisting of 20% propylene glycol (PG, solvent B) plated onto 80% of microcrystalline cellulose (MCC; purchased from Sigma Aldrich). Then the system was stored in the lab at room temperature. After 6 days, a small sample of powder was removed, an extraction experiment was performed and the extract was analyzed by GC/MS. Extraction solvent: cyclohexane Internal standard: Methyloctanoate (a 6.67 mg/ml solution was prepared by dissolution in cyclohexane) 2 extractions were performed to check the reproducibility.

In the case of `CCc1ncc(C)nc1C` [2-ethyl-3,5-dimethylpirazine], the “(conc in PG/conc in initial oil)*100” value is reported as 12.7, the “Avg conc in the PG” value is reported as 25.4 ppm and the “Avg conc in powder” value is reported as 6 ppm.
For `CCc1nccnc1C` [2-ethyl-3-methylpyrazine], the “(conc in PG/conc in initial oil)*100” value was 39.9, the “Avg conc in the PG” value was 799.0 ppm and the “Avg conc in powder” value was 200 ppm.
In the case of `CCC(C)C=O` (stereo not drawn) [2-methyl butanal], the “(conc in PG/conc in initial oil)*100” value is reported as 6.7, the “Avg conc in the PG” value is reported as 1615.4 ppm and the “Avg conc in powder” value is reported as 404 ppm.
With `CSCCC=O` [3-(methylthio)propanal] the “(conc in PG/conc in initial oil)*100” value was 2.8, the “Avg conc in the PG” value was 113.5 ppm and the “Avg conc in powder” value was 28 ppm.
With `CC(=O)C(C)O` (stereo not drawn) [acetylmethylcarbinol] the “(conc in PG/conc in initial oil)*100” value was 3.9, the “Avg conc in the PG” value was 156.9 ppm and the “Avg conc in powder” value was 39 ppm.
With `CC(C)CC=O` [isovalerianic aldehyde] the “(conc in PG/conc in initial oil)*100” value was 9.1, the “Avg conc in the PG” value was 1091.5 ppm and the “Avg conc in powder” value was 273 ppm.
In the case of Decenal, the “(conc in PG/conc in initial oil)*100” value is reported as 0.3, the “Avg conc in the PG” value is reported as 37.8 ppm and the “Avg conc in powder” value is reported as 9 ppm.
For Dienal C10, the “(conc in PG/conc in initial oil)*100” value was 1.9, the “Avg conc in the PG” value was 467.4 ppm and the “Avg conc in powder” value was 117 ppm.
In the case of Dienal C11, the “(conc in PG/conc in initial oil)*100” value is reported as 0.5, the “Avg conc in the PG” value is reported as 40.4 ppm and the “Avg conc in powder” value is reported as 10 ppm.
